We go through four compounds from US20250333432A1, “NOVEL COMPOUND AND USE OF SAME” (NAGASE & CO., LTD., priority 2020, published 2025).

Data set [1] in a line: Solubility in solvent (methanol). Format: physicochemical.
The test system of data set [2] is antioxidant responsive element transcription activity (pGL3-GSTYaARE-Luciferase) in ARPE-19 cells. Briefly: Antioxidant responsive element luciferase reporter assay in ARPE-19 cells. It is filed as cell-based. The note with it: for antioxidant effect in comparison with trehangelin A: ARE luciferase reporter, comparison with known substance trehangelin A; for antioxidant effect: conclusion from luciferase activity vs control, FIG. 1. How it is done:
The physiological functions of the compounds obtained above were evaluated. The evaluation of the physiological functions was carried out by using the tool described in Carnosic acid, a catechol-type electrophilic compound, protects neurons both in vitro and in vivo through activation of the Keap1/Nrf2 pathway via S-alkylation of targeted cysteines on Keap1. Takumi Satoh et al., Journal of Neurochemistry. Vol. 104, pp. 1116-1131, (2008).
Briefly, ARPE-19 cells were seeded in 24-well plates using a 10% FBS-DMEM/F12 medium (manufactured by GIBCO) so as to be 50% confluent. After 24 hours, (1) a mixed solution (vector solution) of 0.5 μg of pGL3-GSTYaARE-Luciferase vector, 0.5 μg of pSV-betaGAL vector, and 50 μL of Opti-MEM I (manufactured by GIBCO) per well and (2) a mixed solution (lipofectamine 2000) of 2 μL of lipofectamine 2000 (manufactured by Thermo Fisher) and 50 μL of Opti-MEM I (manufactured by GIBCO) per well were prepared and left at room temperature for 5 minutes. The vector solution and the lipofectamine 2000 solution were mixed and left at room temperature for 20 minutes. The resulting mixed solution was added to cultured cells (ARPE-19 cells) (100 μL per well) and cultured in a CO2 incubator for 6 hours. Subsequently, the culture medium was replaced with a new 10% FBS-DMEM/F12 medium (0.5 mL/well), followed by culturing for 18 hours. The culture medium was then replaced with a new 10% FBS-DMEM/F12 medium (0.3 mL/well) or a 10% FBS-DMEM/F12 medium (0.3 mL/well) containing […] of various trehangelin derivatives, followed by culturing for 24 hours. After the medium was removed, 150 μL of PassiveLysisBuffer (manufactured by Promega) was added to prepare a cell lysis solution.
100 μL of each cell lysis solution was placed on a 96-well plate, and 100 μL of β-GAL assay kit solution (manufactured by Promega) was added, followed by incubation at 37° C. for 3 hours. Then, β-GAL activity was confirmed by measuring the absorbance at 405 nm.
20 μL of each cell lysis solution was placed in a 96-well plate which differs from the above 96-well plate, and 100 μL of each luciferase assay kit solution (manufactured by Promega) was added. Then, luciferase activity was measured by measuring the luminescence. The obtained result on the luciferase activity was corrected by dividing them by the result on the β-GAL activity, and the antioxidant responsive element transcription activity was calculated.
(In general: A reporter such as luciferase makes a cellular process visible.)

On to `C/C=C(/C)C(=O)OC1C(O)C(CO)OC(OC2OC(CO)C(O)C(OC(=O)/C(C)=C\CC)C2O)C1O` (centres unmarked) [3-O-(2-methyl-2-butenoyl)-3′-O-(2-methyl-2-pentenoyl)trehalose], for which the Solubility in solvent entry in data set [1] is “Poorly soluble in methanol”. For the same compound, in data set [2], the “antioxidant effect in comparison with trehangelin A” value (shortened to “antioxidant effect in comparison”) is on record as “higher antioxidant effect than trehangelin A” and the antioxidant effect entry is listed as “have an antioxidant effect”.

Take `C/C=C\C(=O)OC1C(O)C(CO)OC(OC2OC(CO)C(O)C(OC(=O)/C(C)=C\C)C2O)C1O` (centres unmarked) [3-O-angeloyl-3′-O-isocrotonyltrehalose]: in data set [1], the Solubility in solvent result is “Poorly soluble in methanol”. Besides, in data set [2], the “antioxidant effect in comparison” value is on record as “higher antioxidant effect than trehangelin A” and the antioxidant effect result is given as “have an antioxidant effect”.

On to `C/C=C(/C)C(=O)OC1C(O)C(CO)OC(OC2OC(CO)C(O)C(OC(C)=O)C2O)C1O` (centres unmarked) [3-O-acetyl-3′-O-angeloyltrehalose], for which the Solubility in solvent result in data set [1] is “Poorly soluble in methanol”. Also, in data set [2], the antioxidant effect entry was “have an antioxidant effect”.

As for `C/C=C(/C)C(=O)OC1C(O)C(CO)OC(OC2OC(CO)C(O)C(O)C2O)C1O` (centres unmarked) [3-O-angeloyltrehalose], the Solubility in solvent result in data set [1] is given as “Poorly soluble in methanol”. Moreover, in data set [2], the “antioxidant effect in comparison” value was “almost the same level of antioxidant effect as that of trehangelin A” and the antioxidant effect entry is reported as “have an antioxidant effect”.
